Calls of active or inactive are those of the source. The calls are words filed in the database; no cut-off is given here.
What was measured:
[1] = system: HepG2.2.15; experiment: Inhibition of 2.1 to 3.5 kb HBV mRNA accumulation in human HepG2.2.15 cells at 1 to 2 nM treated for 5 days by northern blot analysis; format: functional, cell-based; details: Hepatitis B virus, dose 1-2 nM, time 5.0 day
[2] = Inhibition HBsAg secretion in human HepG2.2.15 cells treated for 3 days followed by medium replacement without compound measured after 2 days by CLIA; format: functional, cell-based; details: HepG2 2.2.15
[3] = system: Huh-7.5; experiment: Effect on PAPD5 expression in human Huh7.5 cells at 1 uM incubated for 24 hrs by Western blot analysis; format: functional, cell-based
[4] = system: Huh-7.5; experiment: Effect on actin expression in human Huh7.5 cells at 1 uM incubated for 24 hrs by Western blot analysis; format: functional, cell-based
[5] = system: Huh-7.5; experiment: Effect on PAPD7 expression in human Huh7.5 cells at 1 uM incubated for 24 hrs by Western blot analysis; format: functional, cell-based
[6] = system: Hepatovirus A; experiment: Inhibition of replication of Hepatitis A virus expressing 18f-NLuc infected in human Huh7.5 cells treated for 48 hrs by luminescence based analysis; format: functional, organism-based; details: for IC50: Huh7.5, 48 h
[7] = Cytotoxicity against human Huh7.5 cells; format: toxicity, cell-based, Huh-7.5
[8] = system: HepG2.2.15; experiment: Inhibition of 2.1 to 3.5 kb HBV mRNA accumulation in human HepG2.2.15 cells at 7.5 to 15 uM treated for 5 days by northern blot analysis; format: functional, cell-based; details: Hepatitis B virus, dose 7.5-15 µM, time 5.0 day
[9] = system: Huh-7.5; experiment: Effect on PAPD7 expression in human Huh7.5 cells at 10 uM incubated for 24 hrs by Western blot analysis; format: functional, cell-based
[10] = target: T1, Protein cereblon/Terminal nucleotidyltransferase 4B (Homo sapiens) (UniProt Q96SW2+Q8NDF8); experiment: PROTAC activity at CRBN/PAPD5 in human Huh7.5 cells assessed as protein degradation at 10 uM incubated for 24 hrs by Western blot analysis; format: cell-based
[11] = target: T1, Protein cereblon/Terminal nucleotidyltransferase 4B (Homo sapiens); experiment: PROTAC activity at CRBN/PAPD5 in human Huh7.5 cells assessed as protein degradation at 10 uM incubated for 24 hrs in presence of epoxomicin by Western blot analysis; format: cell-based
[12] = system: Huh-7.5; experiment: Effect on actin expression in human Huh7.5 cells at 10 uM incubated for 24 hrs by Western blot analysis; format: functional, cell-based
[13] = Inhibition HBsAg secretion in human Huh-7 cells harboring pHBV1.3 treated for 2 days followed by replacement of medium containing compound measured after 4 days by CLIA; format: functional, cell-based
[14] = Cytotoxicity against human Huh-7 cells assessed as cell viability by Cell Titer Glo assay; format: toxicity, cell-based
[15] = system: Huh-7.5; experiment: Effect on PAPD5 expression in human Huh7.5 cells at 250 nM incubated for 24 hrs by Western blot analysis; format: functional, cell-based
[16] = system: Huh-7.5; experiment: Effect on PAPD7 expression in human Huh7.5 cells at 250 nM incubated for 24 hrs by Western blot analysis; format: functional, cell-based

T1 sequence (Q8NDF8 whole entry, looked up): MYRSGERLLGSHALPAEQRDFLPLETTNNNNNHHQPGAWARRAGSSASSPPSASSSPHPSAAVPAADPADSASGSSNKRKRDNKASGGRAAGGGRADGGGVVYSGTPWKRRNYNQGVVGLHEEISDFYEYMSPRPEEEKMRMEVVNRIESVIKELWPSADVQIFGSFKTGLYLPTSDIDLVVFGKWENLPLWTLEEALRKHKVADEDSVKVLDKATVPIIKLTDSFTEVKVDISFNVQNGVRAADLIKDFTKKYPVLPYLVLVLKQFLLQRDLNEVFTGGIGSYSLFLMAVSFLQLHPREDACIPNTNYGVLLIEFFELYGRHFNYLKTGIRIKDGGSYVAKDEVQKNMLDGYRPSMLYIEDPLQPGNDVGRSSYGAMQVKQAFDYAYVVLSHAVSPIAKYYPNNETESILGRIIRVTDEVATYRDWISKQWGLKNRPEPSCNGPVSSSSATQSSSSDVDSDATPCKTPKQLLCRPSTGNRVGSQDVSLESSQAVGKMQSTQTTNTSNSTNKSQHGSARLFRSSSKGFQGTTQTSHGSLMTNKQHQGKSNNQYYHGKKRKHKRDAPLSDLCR
T1 sequence (Q96SW2 whole entry, looked up): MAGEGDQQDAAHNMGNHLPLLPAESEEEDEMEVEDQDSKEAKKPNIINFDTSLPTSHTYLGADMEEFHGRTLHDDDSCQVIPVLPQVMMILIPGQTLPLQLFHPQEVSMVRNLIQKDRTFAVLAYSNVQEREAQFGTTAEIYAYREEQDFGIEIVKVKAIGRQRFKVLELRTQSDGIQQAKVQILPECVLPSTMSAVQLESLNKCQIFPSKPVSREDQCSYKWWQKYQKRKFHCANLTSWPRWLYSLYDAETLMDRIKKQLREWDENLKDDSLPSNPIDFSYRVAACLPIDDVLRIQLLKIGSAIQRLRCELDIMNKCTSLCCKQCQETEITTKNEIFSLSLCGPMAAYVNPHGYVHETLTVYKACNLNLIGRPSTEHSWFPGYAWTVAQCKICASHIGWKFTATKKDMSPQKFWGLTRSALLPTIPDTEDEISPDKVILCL

**Q.** Which inhibition [1] does the source give for `COCCCOc1cc2c(cc1OC)-c1cc(=O)c(C(=O)O)cn1[C@H](C(C)C)C2` here?
**A.** Active

**Q.** What about the IC50 [2] of the same compound?
**A.** 0.001 µM

**Q.** What about the Activity [3] of the same compound?
**A.** inactive

**Q.** What about the Activity [4] of the same compound?
**A.** inactive

**Q.** What about the Activity [5] of the same compound?
**A.** inactive

**Q.** What does the source list for `COc1cc2c(cc1OCCCNC(=O)CCOCCOCCOCCNc1cccc3c1C(=O)N(C1CCC(=O)NC1=O)C3=O)C[C@@H](C(C)C)n1cc(C(=O)O)c(=O)cc1-2` (some centres not stated)?
**A.** inhibition [6]: Dose-Dependent Effect; IC50 [6]: 0.576 µM; CC50 [7]: > 50 µM; inhibition [8]: Active

**Q.** With `COc1cc2c(cc1OCCCNC(=O)CCOCCOCCOCCOCCOCCOCCNc1cccc3c1C(=O)N(C1CCC(=O)NC1=O)C3=O)C[C@@H](C(C)C)n1cc(C(=O)O)c(=O)cc1-2` (some centres not stated) as the compound, how does the Activity [9] read?
**A.** inactive

**Q.** And the IC50 [2]?
**A.** 16.2 µM

**Q.** And the inhibition [6]?
**A.** Dose-Dependent Effect

**Q.** What about the IC50 [6] of the same compound?
**A.** 0.277 µM

**Q.** What about the Activity [10] of the same compound?
**A.** Active

**Q.** What about the Activity [11] of the same compound?
**A.** inactive

**Q.** And the Activity [12]?
**A.** inactive

**Q.** And the IC50 [13]?
**A.** 10.6 µM

**Q.** And the CC50 [14]?
**A.** > 50 µM

**Q.** What about the CC50 [7] of the same compound?
**A.** > 50 µM

**Q.** What about the inhibition [8] of the same compound?
**A.** Active

**Q.** Which Activity [15] does the source give for `CC[C@H](C)[C@H](NC(=O)[C@H]([C@@H](C)CC)N(C)C(C)=O)C(=O)N[C@H](C(=O)N[C@@H](CC(C)C)C(=O)[C@@]1(C)CO1)[C@@H](C)O` here?
**A.** inactive

**Q.** And the Activity [16]?
**A.** inactive
